From US20250108099A1, “Ovomucoid for use in a method of managing blood coagulation” (Solution Shop AG, priority 2022, published 2025)

Experiments:
Format in all cases: biochemical
plasmin = biological target: T1, plasmin (Homo sapiens, UniProt P00747); test: Plasmin inhibition in buffered plasmin solution with chromogenic substrate S-2251 (Example 2); details: 37° C.
T1 construct: a buffered plasmin solution was used
Method: In order to analyse plasmin inhibition a buffered plasmin solution was used. The solution was incubated with duck egg ovomucoid or cyklocapron as a control. The solutions were incubated at 37° C. and the chromogenic plasmin substrate S-2251 was added and plasmin activity was measured.

Thrombin generation [1] = test: Thrombin generation (calibrated automated thrombogram) in normal non-defibrinated plasma, presence of endogenous fibrinogen; details: for effect on extrinsic-thrombin generation: extrinsic (5 pM TF), ovomucoid/Trasylol 50-350 U/ml, Cyklokapron 1-8 mg; for effect on thrombin generation / coagulation system: low TF concentration (0.5 pM)
Source text: (§1) This pilot bioequivalence study aims at investigating the effect of duck egg ovomucoid on the clotting system and assessed its activity against the known anti-thrombolytic agents (Trasylol® “aprotinin” and Cyklokapron” “transamic acid”) by means of the calibrated automated thrombogram (CAT). The CAT method is a functional sensitive assay which detects any hyper- or hypocoagulability in the clotting system, disorders in platelet function and follows up therapy with anti-haemophilia supplements, anticoagulants and antithrombotics.
(§2) An optimal concentration of procoagulant phospholipids was used (4 μM). Two concentrations of tissue factor (TF) were added, 5 pM to study the classical extrinsic pathway and 0.5 pM to explore a pathway in which also the antihaemophilic factors (Factor VIII and IX) play a role.
Normally fibrin (-ogen) is present during thrombin generation, therefore the above experiments were carried out in normal non-defibrinated plasma. Extrinsic-thrombin generation was conducted in normal plasma spiked with increasing amounts of duck egg ovomucoid (50-350 U/ml) and compared to Trasylol (50-350 U/ml) and to Cyklokapron (1-8 mg).

Thrombin generation [2] = test: Thrombin generation (calibrated automated thrombogram) in defibrinated normal pooled plasma, absence of fibrinogen; details: 0.5 pM TF, ovomucoid/Trasylol 50-350 U/ml, Cyklokapron 1-8 mg/ml
Source text: as §1
In a fibrinolytic patient fibrin is unstable.
as §2

T1 sequence (P00747 97-580 limits assumed): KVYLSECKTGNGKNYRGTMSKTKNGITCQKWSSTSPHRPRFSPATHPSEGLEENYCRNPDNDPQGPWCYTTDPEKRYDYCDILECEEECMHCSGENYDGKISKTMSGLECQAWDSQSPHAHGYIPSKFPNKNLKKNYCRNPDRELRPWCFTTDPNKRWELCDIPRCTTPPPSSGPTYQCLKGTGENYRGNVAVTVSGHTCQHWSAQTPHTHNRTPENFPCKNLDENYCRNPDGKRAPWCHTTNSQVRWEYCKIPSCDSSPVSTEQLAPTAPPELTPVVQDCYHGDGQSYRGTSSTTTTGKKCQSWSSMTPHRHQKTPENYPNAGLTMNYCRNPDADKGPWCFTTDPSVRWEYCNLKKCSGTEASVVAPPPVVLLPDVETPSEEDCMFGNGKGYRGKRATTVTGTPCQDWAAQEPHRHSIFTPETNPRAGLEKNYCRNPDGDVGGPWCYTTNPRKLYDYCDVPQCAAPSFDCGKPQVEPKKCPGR
T1 sequence (P00747 581-810 limits assumed): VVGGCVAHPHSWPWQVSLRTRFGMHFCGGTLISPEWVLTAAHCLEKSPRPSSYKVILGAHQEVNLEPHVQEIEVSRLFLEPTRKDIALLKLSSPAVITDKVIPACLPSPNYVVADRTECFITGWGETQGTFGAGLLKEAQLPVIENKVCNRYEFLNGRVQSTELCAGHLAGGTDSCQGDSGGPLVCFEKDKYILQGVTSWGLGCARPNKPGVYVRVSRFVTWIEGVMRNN

inhibitory effect on plasmin (plasmin)	Compound	effect on extrinsic-thrombin generation (Thrombin generation [1])	effect on thrombin generation / coagulation system (Thrombin generation [1])	effect on thrombin generation (Thrombin generation [2])
inhibitory effect on plasmin	NC[C@H]1CC[C@H](C(=O)O)CC1 [Cyklokapron, transamic acid]	hardly any activity	procoagulant	increased the thrombin generation in a dose-dependent manner
	aprotinin [Trasylol]	hardly any activity	dose-dependently anticoagulant	inhibited thrombin generation dose-dependently
